Biological target: T1, renin (Homo sapiens, UniProt P00797)
T1 construct: made in house; host or cells: Chinese Hamster Ovary cells
T1 sequence (P00797 67-406): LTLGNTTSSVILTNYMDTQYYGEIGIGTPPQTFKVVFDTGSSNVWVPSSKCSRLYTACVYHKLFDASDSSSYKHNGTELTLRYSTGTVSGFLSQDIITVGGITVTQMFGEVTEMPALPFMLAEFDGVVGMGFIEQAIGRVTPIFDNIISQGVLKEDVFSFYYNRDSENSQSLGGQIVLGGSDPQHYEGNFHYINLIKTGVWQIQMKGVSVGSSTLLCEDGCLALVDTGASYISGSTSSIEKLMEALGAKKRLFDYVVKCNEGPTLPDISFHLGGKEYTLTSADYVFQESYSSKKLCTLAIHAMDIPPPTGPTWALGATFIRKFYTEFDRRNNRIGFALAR
Experiment: renin enzyme assay (which of the described assay systems is not specified)
Assay type: biochemical
Conditions: in the several assay system as described above
Experimental: Recombinant human renin (expressed in Chinese Hamster Ovary cells and purified using standard methods) at 7.5 nM concentration is incubated with test compound at various concentrations for 1 h at RT in 0.1 M Tris-HCl buffer, pH 7.4, containing 0.05 M NaCl, 0.5 mM EDTA and 0.05% CHAPS. Synthetic peptide substrate Arg-Glu(EDANS)-Ile-His-Pro-Phe-His-Leu-Val-Ile_His_Thr-Lys(DABCYL)-Arg9 is added to a final concentration of 2 μM and increase in fluorescence is recorded at an excitation wave-length of 350 nm and at an emission wave-length of 500 nm in a microplate spectro-fluorimeter. IC50 values are calculated from percentage of inhibition of renin activity as a function of test compound concentration (Fluorescence Resonance Energy Transfer, FRET, assay).
Alternatively, recombinant human renin (expressed in Chinese Hamster Ovary cells and purified using standard methods) at 0.5 nM concentration is incubated with test compound at various concentrations for 2 h at 37° C. in 0.1 M Tris-HCl buffer, pH 7.4, containing 0.05 M NaCl, 0.5 mM EDTA and 0.05% CHAPS. Synthetic peptide substrate Arg-Glu(EDANS)-Ile-His-Pro-Phe-His-Leu-Val-Ile_His_Thr-Lys(DABCYL)-Arg9 is added to a final concentration of 4 μM and increase in fluorescence is recorded at an excitation wave-length of 340 nm and at an emission wave-length of 485 nm in a microplate spectro-fluorimeter. […]

With `Cc1cccc(CN(C(=O)[C@H]2CNCC[C@@H]2c2cccc(-c3ccccc3)c2)C2CC2)c1C` [Example 75] the “inhibitory activity compared with the active enantiomer of Example 8” value was “same inhibitory activity to an active enantiomer of Example 8”.

Reference: patent publication US8178559B2, “Organic compounds” (Novartis AG, priority 2004, dated 2012)
